Measured values: ChEMBL document CHEMBL1201862, “PubChem BioAssay data set” (2004)
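1) Cells in 96-well plates. 2) Compound, 48 h, 5 concentrations. 3) Linear interpolation between surrounding doses. 4) Unreached endpoint = highest concentration. GI50 = concentration required for 50% inhibition of growth.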 The source made the active and inactive calls. No stated cut-off is given here; in the data, active = GI50 up to about 1.1 µM and inactive = higher.

Assays:
Experiment in all cases: NCI tumour cell line growth inhibition, 48 h
HOP-92 = tested on: HOP-92
Malme-3M = tested on: Malme-3M
SW-620 = tested on: SW-620
NCI-H23 = tested on: NCI-H23
OVCAR-3 = tested on: OVCAR-3
UACC-257 = tested on: UACC-257
HOP-62 = tested on: HOP-62
SF-268 = tested on: SF-268
SF-295 = tested on: SF-295
OVCAR-8 = tested on: OVCAR-8
UACC-62 = tested on: UACC-62
TK-10 = tested on: TK-10
SK-MEL-5 = tested on: SK-MEL-5
A549 = tested on: A549
IGROV-1 = tested on: IGROV-1
KM12 = tested on: KM12
CCRF-CEM = tested on: CCRF-CEM
SNB-75 = tested on: SNB-75
HL-60 = tested on: HL-60
OVCAR-4 = tested on: OVCAR-4

SMILES	GI50 (HOP-92)	GI50 (Malme-3M)	GI50 (SW-620)	GI50 (NCI-H23)	GI50 (OVCAR-3)	GI50 (UACC-257)	GI50 (HOP-62)	GI50 (SF-268)	GI50 (SF-295)	GI50 (OVCAR-8)	GI50 (UACC-62)	GI50 (TK-10)	GI50 (SK-MEL-5)	GI50 (A549)	GI50 (IGROV-1)	GI50 (KM12)	GI50 (CCRF-CEM)	GI50 (SNB-75)	GI50 (HL-60)	GI50 (OVCAR-4)
CC(=O)Oc1cc2c[n+](C)c3c4cc(OC(C)=O)c(OC(C)=O)cc4ccc3c2cc1OC(C)=O	4.32 µM (inactive)	2.39 µM (inactive)	3.31 µM (inactive)	4.23 µM (inactive)	2.24 µM (inactive)	14.5 µM (inactive)	3.71 µM (inactive)	0.407 µM (active)	4.72 µM (inactive)	2.73 µM (inactive)	3.97 µM (inactive)	> 100 µM (inactive)	3.17 µM (inactive)	12.8 µM (inactive)	2.49 µM (inactive)	5.46 µM (inactive)	–	–	–	–
CC(C)=C/C=C1/CS(=O)(=O)C=C1C	–	> 100 µM (inactive)	> 100 µM (inactive)	> 100 µM (inactive)	> 100 µM (inactive)	> 100 µM (inactive)	> 100 µM (inactive)	–	> 100 µM (inactive)	> 100 µM (inactive)	> 100 µM (inactive)	> 100 µM (inactive)	> 100 µM (inactive)	> 100 µM (inactive)	> 100 µM (inactive)	> 100 µM (inactive)	> 100 µM (inactive)	> 100 µM (inactive)	> 100 µM (inactive)	–
COc1cccc(NC(=O)C(=O)C2C=CCS2(=O)=O)c1 (stereo not drawn)	–	> 100 µM (inactive)	> 100 µM (inactive)	> 100 µM (inactive)	> 100 µM (inactive)	> 100 µM (inactive)	> 100 µM (inactive)	> 100 µM (inactive)	> 100 µM (inactive)	53.8 µM (inactive)	> 100 µM (inactive)	> 100 µM (inactive)	> 100 µM (inactive)	> 100 µM (inactive)	> 100 µM (inactive)	> 100 µM (inactive)	> 100 µM (inactive)	56 µM (inactive)	> 100 µM (inactive)	> 100 µM (inactive)
CC12CCCCC1=[N+]([O-])C(C)(C)N2O (stereo not drawn)	> 100 µM (inactive)	> 100 µM (inactive)	> 100 µM (inactive)	> 100 µM (inactive)	> 100 µM (inactive)	> 100 µM (inactive)	> 100 µM (inactive)	> 100 µM (inactive)	> 100 µM (inactive)	> 100 µM (inactive)	> 100 µM (inactive)	> 100 µM (inactive)	> 100 µM (inactive)	> 100 µM (inactive)	> 100 µM (inactive)	> 100 µM (inactive)	> 100 µM (inactive)	–	–	> 100 µM (inactive)
C/N=C1\OC2=C3C(c4ccccc4)(O/C(=N/C)N(C)C3(c3ccccc3)OC2=O)N1C (stereo not drawn)	–	–	> 100 µM (inactive)	> 100 µM (inactive)	> 100 µM (inactive)	> 100 µM (inactive)	> 100 µM (inactive)	> 100 µM (inactive)	> 100 µM (inactive)	> 100 µM (inactive)	> 100 µM (inactive)	> 100 µM (inactive)	> 100 µM (inactive)	> 100 µM (inactive)	> 100 µM (inactive)	> 100 µM (inactive)	> 100 µM (inactive)	71.4 µM (inactive)	> 100 µM (inactive)	> 100 µM (inactive)
Nc1ncnc2c1ncn2[C@@H]1C[C@H]1CO	–	> 100 µM (inactive)	> 100 µM (inactive)	> 100 µM (inactive)	42 µM (inactive)	> 100 µM (inactive)	> 100 µM (inactive)	–	> 100 µM (inactive)	> 100 µM (inactive)	–	–	–	> 100 µM (inactive)	–	> 100 µM (inactive)	> 100 µM (inactive)	–	> 100 µM (inactive)	–
COc1cc(C(O)C(=O)c2nc3ccc([N+](=O)[O-])cc3nc2O)ccc1O (stereo not drawn)	–	> 100 µM (inactive)	> 100 µM (inactive)	> 100 µM (inactive)	> 100 µM (inactive)	> 10 µM (inactive)	> 100 µM (inactive)	> 100 µM (inactive)	> 100 µM (inactive)	> 100 µM (inactive)	73.1 µM (inactive)	> 100 µM (inactive)	81.1 µM (inactive)	98.9 µM (inactive)	> 100 µM (inactive)	> 100 µM (inactive)	40.7 µM (inactive)	–	70.5 µM (inactive)	> 100 µM (inactive)
O=C1NC2(CCCCC2)C(=O)N1CCN(CCCl)CCCl [SPIROMUSTINE]	–	165 µM (inactive)	102 µM (inactive)	106 µM (inactive)	–	218 µM (inactive)	107 µM (inactive)	–	–	129 µM (inactive)	77.6 µM (inactive)	> 25 µM (inactive)	> 241 µM (inactive)	135 µM (inactive)	> 250 µM (inactive)	199 µM (inactive)	45.8 µM (inactive)	173 µM (inactive)	41.9 µM (inactive)	> 239 µM (inactive)
COc1ccc(C2SCC(=O)N2c2ccc(-n3c(-c4ccccc4)nc4ccccc4c3=O)cc2)cc1OC (stereo not drawn)	–	> 100 µM (inactive)	> 100 µM (inactive)	> 100 µM (inactive)	> 100 µM (inactive)	> 100 µM (inactive)	> 100 µM (inactive)	> 100 µM (inactive)	> 100 µM (inactive)	> 100 µM (inactive)	62.1 µM (inactive)	> 100 µM (inactive)	> 100 µM (inactive)	> 100 µM (inactive)	> 100 µM (inactive)	> 100 µM (inactive)	> 100 µM (inactive)	3.11 µM (inactive)	> 100 µM (inactive)	> 10 µM (inactive)
COC1O[C@H]2[C@H]3[C@@H]1[C@@H](OS(=O)(=O)c1ccc(C)cc1)C(=O)N3C[C@H]2O (stereo partly drawn)	–	> 100 µM (inactive)	> 100 µM (inactive)	> 100 µM (inactive)	> 100 µM (inactive)	> 100 µM (inactive)	> 100 µM (inactive)	> 100 µM (inactive)	> 100 µM (inactive)	> 100 µM (inactive)	> 100 µM (inactive)	> 100 µM (inactive)	> 100 µM (inactive)	> 100 µM (inactive)	–	> 100 µM (inactive)	–	–	–	> 100 µM (inactive)
C=C(C)C(=O)O[C@H]1C/C(CO)=C/CCC(=C)C(OC(C)=O)[C@H]2OC(=O)C(=C)[C@H]12 (stereo partly drawn)	–	3.96 µM (inactive)	3.87 µM (inactive)	10.3 µM (inactive)	6.44 µM (inactive)	10 µM (inactive)	26.2 µM (inactive)	2 µM (inactive)	23.7 µM (inactive)	16.2 µM (inactive)	10.2 µM (inactive)	> 10 µM (inactive)	14.7 µM (inactive)	19.1 µM (inactive)	17.5 µM (inactive)	14.7 µM (inactive)	1.6 µM (inactive)	2.35 µM (inactive)	3.09 µM (inactive)	–
O=C(CC1(O)C(=O)Nc2ccc([N+](=O)[O-])cc21)c1ccc(Br)cc1 (stereo not drawn)	–	> 100 µM (inactive)	> 10 µM (inactive)	40.6 µM (inactive)	43 µM (inactive)	69.8 µM (inactive)	> 100 µM (inactive)	55.1 µM (inactive)	52.6 µM (inactive)	39.8 µM (inactive)	47.2 µM (inactive)	32.7 µM (inactive)	–	> 100 µM (inactive)	–	42.9 µM (inactive)	47.4 µM (inactive)	23.3 µM (inactive)	18.6 µM (inactive)	49.7 µM (inactive)
FC1=C2C3CCC(C3)C2C1(F)F (stereo not drawn)	–	> 100 µM (inactive)	> 100 µM (inactive)	> 100 µM (inactive)	> 100 µM (inactive)	> 100 µM (inactive)	> 100 µM (inactive)	> 100 µM (inactive)	> 100 µM (inactive)	> 100 µM (inactive)	> 100 µM (inactive)	> 100 µM (inactive)	> 100 µM (inactive)	> 100 µM (inactive)	> 100 µM (inactive)	> 100 µM (inactive)	47.6 µM (inactive)	> 100 µM (inactive)	81.7 µM (inactive)	> 100 µM (inactive)
COc1cc(C2c3cc4c(cc3OC(C)(O)C2C)OCO4)cc(OC)c1OC (stereo not drawn)	–	0.407 µM (active)	0.349 µM (active)	0.745 µM (active)	0.316 µM (active)	65.2 µM (inactive)	0.335 µM (active)	2.69 µM (inactive)	0.304 µM (active)	0.217 µM (active)	–	–	0.154 µM (active)	0.197 µM (active)	0.625 µM (active)	0.697 µM (active)	0.406 µM (active)	–	0.182 µM (active)	–
CCN(CC(O)COc1ccc2c(c1)[n+]([O-])nc(N)[n+]2[O-])C(C)=O (stereo not drawn)	–	–	> 100 µM (inactive)	91.2 µM (inactive)	> 100 µM (inactive)	> 100 µM (inactive)	> 100 µM (inactive)	80.5 µM (inactive)	> 100 µM (inactive)	59.3 µM (inactive)	49.7 µM (inactive)	> 100 µM (inactive)	79.1 µM (inactive)	> 100 µM (inactive)	> 100 µM (inactive)	> 100 µM (inactive)	72.4 µM (inactive)	38.9 µM (inactive)	> 100 µM (inactive)	86.5 µM (inactive)
COC(=O)c1ccccc1C#CC#Cc1ccccc1C(=O)OC	–	6.79 µM (inactive)	> 10 µM (inactive)	> 10 µM (inactive)	2.55 µM (inactive)	> 10 µM (inactive)	> 10 µM (inactive)	> 10 µM (inactive)	> 10 µM (inactive)	6.21 µM (inactive)	> 10 µM (inactive)	> 10 µM (inactive)	> 10 µM (inactive)	> 10 µM (inactive)	> 10 µM (inactive)	3.19 µM (inactive)	> 10 µM (inactive)	–	4.76 µM (inactive)	2.9 µM (inactive)
